Source: patent EP4755375A1, “PHARMACEUTICAL COMPOSITION CONTAINING SUBSTITUTED INDOL-5-OL DERIVATIVE AND USE THEREOF” (Changshan Conjuchem Biopharmaceutical Research and …, priority 2023, dated 2025)
Converted amounts (≈) assume the structure as drawn.

Tests used:
[1] = Dog PK: bioavailability of solid dispersions and API; format: in vivo; details: plasma, beagle dogs (male, fasted), oral, dose 5 mg/kg
Procedure: Based on the solubility data from the solid dispersion formulation examples above, the API (administration form: 10 mg/mL suspension, API suspended in 0.5% CMC-Na solution) and solid dispersions prepared using PVP K30 (drug-excipient ratios of 1:3 and 1:4, respectively) were selected for dog PK experiments. The solid dispersions were filled into hard capsules and orally administered to beagle dogs (male, fasted, 3 dogs per group) at a dose of 5 mg/kg. Whole blood samples of 0.3 mL were collected at 0 min, 10 min, 15 min, 30 min, 1 h, 2 h, 3 h, 4 h, 6 h, 8 h, 12 h, and 24 h after administration. The blood samples were placed in anticoagulant tubes, gently inverted several times, and then kept on wet ice in preparation for centrifugation. Within 30 minutes after collection, the samples were centrifuged at about 2000 × g (force) at 4°C for 10 minutes to obtain plasma. The resulting plasma samples were immediately divided into two aliquots (about 75 µL each) and transferred to cryovials. The samples were maintained on wet ice throughout the processing and stored in a freezer at -75 ± 15°C until analysis. The concentrations of the test substance in the plasma samples were analyzed using an LC-MS/MS method. Table 50 Summary of Dog PK Data for SDD Formulations

[2] = Dog PK experiment for tablets; format: in vivo; details: plasma, beagle dogs (male, fasted), oral, dose 5 mg/kg
Procedure: Example 59 and Example 60 were orally administered to beagle dogs (male, fasted, 3 dogs per group) at a dose of about 5 mg/kg. Example 65 was orally administered to beagle dogs (half male and half female, fasted, 8 dogs) at a dose of 50 mg/animal (about 5 mg/kg). Whole blood samples of 0.3 mL were collected at 0 min, 10 min, 15 min, 30 min, 1 h, 2 h, 3 h, 4 h, 6 h, 8 h, 12 h, and 24 h after administration. The blood samples were placed in anticoagulant tubes, gently inverted several times, and then kept on wet ice in preparation for centrifugation. Within 30 minutes after collection, the samples were centrifuged at about 2000 × g (force) at 4°C for 10 minutes to obtain plasma. The resulting plasma samples were immediately divided into two aliquots (about 75 µL each) and transferred to cryovials. The samples were maintained on wet ice throughout the processing and stored in a freezer at -75 ± 15°C until analysis. The concentrations of the test substance in the plasma samples were analyzed using an LC-MS/MS method. Table 51 Summary of Dog PK Data for Tablets

[3] = Solubility testing of solid dispersions in media with different pH values (shaker, 24 hours); format: physicochemical; details: 0.1mol/L HCl
Procedure: (§1) Weigh an amount of powder (equivalent to 50 mg of API) from Examples 1-7 into a 10-mL vial, add 5 mL of media with different pH values, so that the theoretical concentration of API in the sample solution was about 10 mg/mL. Shake the vials in a shaker for 24 hours, and determine the solubility. During shaking, observe the dissolution phenomenon of the powder in the solution. If the solution becomes clear, add an additional amount of sample powder. Table 4 Solubility of Solid Dispersions Prepared Using Povidone in Different Media
Weigh an amount of powder (equivalent to 50 mg of API) from Examples 9-13 into a 10-mL vial, add a corresponding volume of media with different pH values, so that the theoretical concentration of API in the solution was about 10 mg/mL (the theoretical concentration of API in the sample solution of Example 13 was about 5 mg/mL). Shake the vials in a shaker for 24 hours, and sample at 4 h and 24 h to determine the solubility. During shaking, observe the dissolution phenomenon of the powder in the solution. If the solution becomes clear, add an additional amount of sample powder. Table 7 Solubility of Solid Dispersions Prepared Using HPMC in Different Media
as §1, with “Examples 14-16” for “Examples 1-7”, “add a corresponding volume” for “add 5 mL”, “and sample at 4 h and 24 h to” for “and”, “Table 9” for “Table 4”, “Using HPC” for “Using Povidone”
as §1, with “Examples 17-21” for “Examples 1-7”, “add a corresponding volume” for “add 5 mL”, “and sample at 4 h and 24 h to” for “and”, “Table 11” for “Table 4”, “Using Copovidone S630” for “Using Povidone”
Weigh an amount of powder (equivalent to 50 mg of API) from Examples 22-24 into a 10-mL vial, add a corresponding volume of media with different pH values, so that the theoretical concentration of API in the sample solution was about 10 mg/mL. Shake the vials in a shaker for 24 hours, and sample at 4 h and 24 h to determine solubility. Table 13 Solubility of Solid Dispersions Prepared Using HPMC AS in Different Media
Weigh an amount of powder(equivalent to 50 mg of API) from Examples 25-28 into a 10 mL vial, add a corresponding volume of media with different pH values, so that the theoretical concentration of API in the sample solution was about 10 mg/mL. Shake the vials in a shaker for 24 hours, and sample at 4 h and 24 h to determine the solubility. During shaking, observe the dissolution phenomenon of the powder in the solution. If the solution becomes clear, add an additional amount of sample powder. Table 15 Solubility of Solid Dispersions Prepared Using Polyethylene Glycol in Different Media […]

[4] = Solubility of API in solvent combinations (visual dissolution); format: physicochemical; details: organic solvent combinations of Table 2, organic solvent or mixture, thermodynamic from solid; solvent combinations of Table 2 (acetone/methanol, acetone/ethanol, with water or dichloromethane); read-out: solubility of API in the solvent combinations listed in Table 2
Procedure: The solvent compositions capable of simultaneously dissolving the compound of the present invention and the carrier materials are shown in Table 2. The detection method for the solubility of API in different solvent combinations is as follows: Weigh 20 mg of the compound of the present invention and add it to 4 mL of different solvents or solvent combinations, respectively. Gently shake and observe the dissolution phenomenon. If complete dissolution occurs, add a small amount of additional API to the above solution, continue shaking, and observe the dissolution phenomenon. […] All carrier materials listed in Table 2 are soluble in the selected solvents or solvent combinations. Table 2 Solvent Compositions Capable of Simultaneously Dissolving the Compound of the Present Invention and the Carrier

[5] = Saturated solubility of API in different solvents/media; format: physicochemical; details: for solubility at 24 h: organic solvent or mixture, thermodynamic from solid, room temperature
Procedure: The saturated solubility of the compound of the present invention in different solvents/media is shown in Table 1 (Test method: An appropriate excess amount of API was placed in an appropriate amount of solvent and shaken at room temperature for 24 hours, after which the sample solution was processed and analyzed). Among them, methanol and acetone are the optimal choices. Table 1 Saturated Solubility of the Compound of the Present Invention in Different Solvents/Media

- AUC [1]: 59 ng·h/mL
- Cmax [1]: 22 ng/mL
- AUC [2]: 59 ng·h/mL
- Cmax [2]: 22 ng/mL
- Solubility ([3]; 4h, API alone, sample concentration not given): 50 µg/mL (≈ 0.104 mM)
- Solubility ([3]; 24h, API alone, sample concentration not given): 50 µg/mL (≈ 0.104 mM)
- solubility at 2 h ([3]; simulated gastric fluid, thermodynamic from solid, 2h, API alone, sample concentration not given): 50 µg/mL (≈ 0.104 mM)
- solubility at 4 h ([3]; simulated gastric fluid, thermodynamic from solid, 4h, sample Supersaturated): 50 µg/mL (≈ 0.104 mM)
- solubility at 24 h ([3]; simulated gastric fluid, thermodynamic from solid, 24h, sample Supersaturated): 50 µg/mL (≈ 0.104 mM)
- Solubility [4]: > 5000 µg/mL
- Solubility Description ([5]; Acetone): Slightly soluble
- Solubility Description ([5]; Acetonitrile): Slightly soluble
- Solubility Description ([5]; Ethanol): Slightly soluble
- Solubility Description ([5]; Ethyl acetate): Slightly soluble
- Solubility Description ([5]; Isopropanol): Slightly soluble
- Solubility Description ([5]; Methanol): Slightly soluble
- Solubility Description ([5]; Propylene glycol): Slightly soluble
- solubility at 24 h ([5]; Acetone): 5990 µg/mL (≈ 12.5 mM)
- solubility at 24 h ([5]; Acetonitrile): 1220 µg/mL (≈ 2.54 mM)
- solubility at 24 h ([5]; Ethanol): 5170 µg/mL (≈ 10.8 mM)
- solubility at 24 h ([5]; Ethyl acetate): 4980 µg/mL (≈ 10.4 mM)
- solubility at 24 h ([5]; Isopropanol): 2340 µg/mL (≈ 4.87 mM)
- solubility at 24 h ([5]; Methanol): 8360 µg/mL (≈ 17.4 mM)
- solubility at 24 h ([5]; Propylene glycol): 2220 µg/mL (≈ 4.62 mM)
SMILES: C/C=C/c1cc(Nc2cc(N3CCN(C)CC3)nc(Oc3cc(F)c4[nH]c(C)cc4c3F)n2)n[nH]1 [API]
